# Laboratory results reported in US11420944B2, “Voltage-dependent t-type calcium channel blocker” (Nippon Chemiphar Co., Ltd., priority 2016, dated 2022).
# Counter-ions that a name gives are not always drawn. Like-named read-outs stand apart in the source and are kept apart here.
# Target: T1, human Cav3.2 channels (Homo sapiens, UniProt O95180)
# T1 construct: expressed in transfected cells; host or cells: HEK293 cells (ATCC No. CRL-1573), plasmid pcDNA3.1(+)
# Experiment: Intracellular calcium concentration measurement (Fluo-4 AM) in stable cells expressing human Cav3.2 channels, buffer A / buffer B
# Assay type: cell-based
# From the text: Construction of Stable Cells Expressing Human Cav3.2 Channels
# (1) A sequence produced by incorporating HindIII site and kozak sequence (GCCACC) into the 5′-terminal side of human Cav3.2 channel ORF (Open Reading Frame) gene and incorporating Kpnl site into the 3′-terminal side was incorporated into pcDNA3.1(+) (Thermo-Fisher Scientific, Inc., #V790-20), and the plasmid was transfected into HEK293 cells (ATCC No. CRL-1573) according to the protocol of FuGENE (registered trademark) HD Transfection Reagent (PROMEGA #E2311).
# (2) Method for Measuring Intracellular Calcium Concentration
# In the present measurement system, buffer A and buffer B having different potassium ion concentrations were used in order to evaluate the state-dependent Cav3.2 inhibitory action of a test compound.
# Stable cell line expressing human Cav3.2 channels, which had been produced in (1), was seeded in a 96-well plate using DMEM medium including 10% FBS, and the cells were cultured for 48 hours under the conditions of 37° C. and 5% CO2. Subsequently, the medium was removed, and various wells that had been washed with a base buffer were treated with 80 μL of a fluorescent dye solution containing a mixed liquid of 22 μg of calcium fluorescence indicator Fluo-4 AM (Dojindo Laboratories Co., Ltd., #F311), 20 μL of DMSO, […] of 10% Pluronic F-127 (Thermo-Fisher Scientific, Inc., #P6866), and 4 mL of a base buffer. The cells were left to stand for 45 minutes at room temperature in the dark, and then the cells were washed with buffer A or buffer B. Solutions having various test compound concentrations and respectively containing buffer A or buffer B were added to the respective wells, the respective solutions containing DMSO at the same final concentration as that of the test compound as negative control, or containing the test compound dissolved in 100% DMSO at a final concentration of 0.1%. The cells were left to stand for another 15 minutes at room temperature in the dark, and the cells were analyzed using the following method using a microplate reader, EnVision (PerkinElmer, Inc.). First, the background fluorescence for each well was measured, subsequently an ionophore was added to the well, and the fluorescence of the baseline was measured. Subsequently, buffer A or buffer B containing added KCl at a concentration of 83.8 mM or 91.8 mM was added to each well, and an increase in fluorescence caused by a calcium influx generated by that stimulus was measured for 10 seconds. The percentage inhibition was calculated from the maximum fluorescence increment from the baseline, and the logarithmic value of the test compound concentration and the inhibitory activity were plotted to calculate the IC50 value. The analysis was carried out by measuring the fluorescence at 510 nm emitted when the cells were irradiated with exciting light at 485 nm.
# Base buffer: 140 mM NaCl, 5 mM KCl, 1 mM MgCl2, 0.5 mM CaCl2, 10 mM Glucose, and 10 mM HEPES, pH 7.3
# Buffer A: Equilibrium potential of potassium: −92 mV
# [1] = Tables 2 to 6, buffer A, equilibrium potential of potassium −92 mV, read-out: Inhibitory action of buffer A (inactivated state)
# [2] = Table 1, buffer A, equilibrium potential of potassium −92 mV, read-out: Inhibitory action of buffer A (inactivated state)
# [3] = Table 1, buffer B, equilibrium potential of potassium −110 mV, read-out: Inhibitory action of buffer B (resting state or closed state)
# T1 sequence (O95180 whole entry): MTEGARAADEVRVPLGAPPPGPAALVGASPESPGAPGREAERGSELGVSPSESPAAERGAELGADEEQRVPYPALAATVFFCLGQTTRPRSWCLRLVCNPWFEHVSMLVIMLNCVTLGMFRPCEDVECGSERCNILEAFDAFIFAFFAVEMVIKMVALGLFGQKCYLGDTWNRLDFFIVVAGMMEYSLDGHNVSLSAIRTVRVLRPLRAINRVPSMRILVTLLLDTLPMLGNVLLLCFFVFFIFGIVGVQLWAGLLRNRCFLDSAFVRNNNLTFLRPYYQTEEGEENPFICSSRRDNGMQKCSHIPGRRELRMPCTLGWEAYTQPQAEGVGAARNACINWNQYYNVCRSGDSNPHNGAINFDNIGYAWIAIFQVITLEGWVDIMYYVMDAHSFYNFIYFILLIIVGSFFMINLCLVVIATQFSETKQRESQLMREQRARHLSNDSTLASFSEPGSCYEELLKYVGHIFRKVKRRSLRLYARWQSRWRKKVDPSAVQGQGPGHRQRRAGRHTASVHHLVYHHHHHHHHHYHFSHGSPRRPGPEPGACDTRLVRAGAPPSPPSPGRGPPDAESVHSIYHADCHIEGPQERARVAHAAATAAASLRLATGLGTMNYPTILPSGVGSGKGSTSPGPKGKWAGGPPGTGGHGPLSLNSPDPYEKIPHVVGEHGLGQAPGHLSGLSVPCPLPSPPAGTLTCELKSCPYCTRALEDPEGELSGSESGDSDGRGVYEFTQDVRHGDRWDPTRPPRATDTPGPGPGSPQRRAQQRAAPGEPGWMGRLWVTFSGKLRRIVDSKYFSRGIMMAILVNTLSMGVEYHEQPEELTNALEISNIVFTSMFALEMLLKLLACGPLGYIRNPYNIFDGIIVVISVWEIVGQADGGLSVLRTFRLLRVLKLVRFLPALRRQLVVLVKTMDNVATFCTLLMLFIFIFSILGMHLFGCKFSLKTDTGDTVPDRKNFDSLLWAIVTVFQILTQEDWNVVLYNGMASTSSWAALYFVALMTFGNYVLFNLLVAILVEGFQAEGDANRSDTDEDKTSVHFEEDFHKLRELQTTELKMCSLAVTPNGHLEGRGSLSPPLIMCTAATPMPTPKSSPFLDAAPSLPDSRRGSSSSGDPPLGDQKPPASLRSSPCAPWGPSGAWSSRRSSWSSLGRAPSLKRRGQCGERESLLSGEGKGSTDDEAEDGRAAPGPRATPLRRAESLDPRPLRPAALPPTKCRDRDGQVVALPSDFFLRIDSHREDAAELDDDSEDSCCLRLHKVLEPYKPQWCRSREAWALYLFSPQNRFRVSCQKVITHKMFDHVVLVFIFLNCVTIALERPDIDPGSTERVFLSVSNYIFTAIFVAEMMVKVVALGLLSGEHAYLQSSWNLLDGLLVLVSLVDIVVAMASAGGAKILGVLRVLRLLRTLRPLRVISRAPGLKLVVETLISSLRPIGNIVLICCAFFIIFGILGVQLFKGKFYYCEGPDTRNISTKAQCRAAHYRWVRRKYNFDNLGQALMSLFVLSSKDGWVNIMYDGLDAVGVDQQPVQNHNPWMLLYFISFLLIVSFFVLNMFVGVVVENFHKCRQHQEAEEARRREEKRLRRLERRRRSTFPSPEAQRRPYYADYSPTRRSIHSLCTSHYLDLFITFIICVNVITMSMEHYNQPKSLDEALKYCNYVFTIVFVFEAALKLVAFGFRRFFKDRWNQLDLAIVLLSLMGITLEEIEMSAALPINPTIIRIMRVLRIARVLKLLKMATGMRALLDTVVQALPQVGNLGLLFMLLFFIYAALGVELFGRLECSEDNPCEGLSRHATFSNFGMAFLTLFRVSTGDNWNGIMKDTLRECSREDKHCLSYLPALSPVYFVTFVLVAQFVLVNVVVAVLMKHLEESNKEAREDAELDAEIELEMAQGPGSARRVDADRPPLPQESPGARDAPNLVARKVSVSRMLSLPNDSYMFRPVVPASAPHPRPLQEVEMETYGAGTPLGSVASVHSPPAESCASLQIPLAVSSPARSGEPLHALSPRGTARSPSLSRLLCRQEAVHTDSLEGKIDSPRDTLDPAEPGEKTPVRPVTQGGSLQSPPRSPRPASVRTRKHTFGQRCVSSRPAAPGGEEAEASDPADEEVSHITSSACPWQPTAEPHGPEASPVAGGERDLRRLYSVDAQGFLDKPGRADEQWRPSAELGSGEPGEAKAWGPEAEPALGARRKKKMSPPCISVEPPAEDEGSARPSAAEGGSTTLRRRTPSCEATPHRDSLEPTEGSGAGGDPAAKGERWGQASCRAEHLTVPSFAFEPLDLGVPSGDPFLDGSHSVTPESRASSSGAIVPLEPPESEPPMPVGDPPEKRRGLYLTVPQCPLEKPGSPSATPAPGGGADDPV
SMILES,IC50 [1],IC50 [2],IC50 [3]
"C[C@@H](NC(=O)[C@H]1C[C@@H]1c1nc(-c2ccccn2)c[nH]1)c1ccc(OCC(F)(F)F)s1 [Example 46, (1S,2S)-2-(4-(pyridin-2-yl)-1H-imidazol-2-yl)-N—((R)-1-(5-(2,2,2-trifluoroethoxy)thiophen-2-yl)ethyl)cyclopropane-1-carboxamide]",0.1 to 1 µM,–,–
C[C@@H](NC(=O)C1CC1c1nc2ccccc2[nH]1)c1cnn(CCC(F)(F)F)c1 (some centres unmarked) [Example 9],–,> 10 µM,–
"CC(C(=O)NC12CC3CC(CC(C3)C1)C2)N1CC[C@@H](C(=O)N[C@H](C)c2cnc(OCC(F)(F)F)s2)C1 (stereo partly drawn) [Example 47, (3R)-1-(1-((adamantan-1-yl)amino)-1-oxopropan-2-yl)-N—((R)-1-(2-(2,2,2-trifluoroethoxy)thiazol-5-yl)ethyl)pyrrolidine-3-carboxamide]",≤ 0.1 µM,–,–
"C[C@H](NC(=O)C1CC1c1nc2ccccc2[nH]1)c1cnc(OCC(F)(F)F)s1 (single isomer, unassigned) [Example 7A]",–,1 to 10 µM,> 10 µM
"C[C@@H](NC(=O)[C@H]1C[C@@H]1c1nc2ccccc2[nH]1)c1ccc(C(=O)N2CCCC(F)C2)s1 (stereo partly drawn) [Example 95, (1S,2S)-2-(1H-benzo[d]imidazol-2-yl)-N-((1R)-1-(5-(3-fluoropiperidine-1-carbonyl)thiophen-2-yl)ethyl)cyclopropane-1-carboxamide]",1 to 10 µM,–,–
"C[C@@H](NC(=O)[C@H]1C[C@@H]1c1nc2ccccc2[nH]1)c1cc2c(F)cccc2o1 [Example 97, (1S,2S)-2-(1H-benzo[d]imidazol-2-yl)-N—((R)-1-(4-fluorobenzofuran-2-yl)ethyl)cyclopropane-1-carboxamide]",0.1 to 1 µM,–,–
"C[C@@H](NC(=O)C1CC1c1nc2cccnc2[nH]1)c1ccc(OCC(F)(F)F)s1 (single isomer, unassigned) [Example 35]",1 to 10 µM,–,–
"C[C@@H](NC(=O)C1CC1c1nc2ccccc2[nH]1)c1ccc(C(=O)N2CCNCC2)s1 (stereo in doubt) [Example 75, Trans-2-(1H-benzo[d]imidazol-2-yl)-N—((R)-1-(5-(piperazine-1-carbonyl)thiophen-2-yl)ethyl)cyclopropane-1-carboxamide]",1 to 10 µM,–,–
"Cc1cc([C@@H](C)NC(=O)C2CC2c2nc3ccccc3[nH]2)sc1OCC(F)(F)F (single isomer, unassigned) [Example 1B]",–,1 to 10 µM,–
"C[C@@H](NC(=O)[C@H]1C[C@@H]1c1nc2cc(Cl)ccc2[nH]1)c1cc2cc(F)ccc2o1 [Example 81, (1S,2S)-2-(5-chloro-1H-benzo[d]imidazol-2-yl)-N—((R)-1-(5-fluorobenzofuran-2-yl)ethyl)cyclopropane-1-carboxamide]",≤ 0.1 µM,–,–
"C[C@@H](NC(=O)[C@H]1C[C@@H]1c1nc2ccccc2[nH]1)c1ccc(C(=O)N2CCCCCC2)s1 [Example 87, (1S,2S)—N—((R)-1-(5-(azepane-1-carbonyl)thiophen-2-yl)ethyl)-2-(1H-benzo[d]imidazol-2-yl)cyclopropane-1-carboxamide]",1 to 10 µM,–,–
"C[C@@H](NC(=O)[C@@H]1CCN(CCC(C)(C)C)C1)c1ccc(OCC(F)(F)F)s1 [Example 18, (R)-1-(3,3-dimethylbutyl)-N—((R)-1-(5-(2,2,2-trifluoroethoxy)thiophen-2-yl)ethyl)pyrrolidine-3-carboxamide hydrochloride]",–,1 to 10 µM,1 to 10 µM
"C[C@@H](NC(=O)C1CC1c1nc2ccccc2[nH]1)c1ccc(C(=O)N2CCCC2(C)C)s1 (stereo in doubt) [Example 67, Trans-2-(1H-benzo[d]imidazol-2-yl)-N—((R)-1-(5-(2,2-dimethylpyrrolidine-1-carbonyl)thiophen-2-yl)ethyl)cyclopropane-1-carboxamide]",1 to 10 µM,–,–
"C[C@@H](NC(=O)[C@@H]1CCN(CC(=O)Nc2cnccn2)C1)c1ccc(OCC(F)(F)F)s1 [Example 37, (R)-1-(2-oxo-2-(pyrazin-2-ylamino)ethyl)-N—((R)-1-(5-(2,2,2-trifluoroethoxy)thiophen-2-yl)ethyl)pyrrolidine-3-carboxamide]",1 to 10 µM,–,–
"CC(NC(=O)[C@H]1C[C@@H]1c1nc2ccccc2[nH]1)c1cc2ncccc2o1 (stereo partly drawn) [Example 80, (1S,2S)-2-(1H-benzo[d]imidazol-2-yl)-N-(1-(furo[3,2-b]pyridin-2-yl)ethyl)cyclopropane-1-carboxamide]",1 to 10 µM,–,–
"C[C@@H](NC(=O)[C@H]1CCN(CC(=O)NC(C)(C)C)C1)c1ccc(OCC(F)(F)F)s1 [Example 14, (S)-1-(2-(tert-butylamino)-2-oxoethyl)-N—((R)-1-(5-(2,2,2-trifluoroethoxy)thiophen-2-yl)ethyl)pyrrolidine-3-carboxamide hydrochloride]",–,1 to 10 µM,1 to 10 µM
"COc1ccc2oc([C@@H](C)NC(=O)[C@H]3C[C@@H]3c3nc4ccccc4[nH]3)cc2c1 [Example 79, (1S,2S)-2-(1H-benzo[d]imidazol-2-yl)-N—((R)-1-(5-methoxybenzofuran-2-yl)ethyl)cyclopropane-1-carboxamide]",0.1 to 1 µM,–,–
"C[C@@H](NC(=O)[C@H]1C[C@@H]1c1nc2ccccc2[nH]1)c1ccc(C(=O)N2CC(F)(F)C2)s1 [Example 83, (1S,2S)-2-(1H-benzo[d]imidazol-2-yl)-N—((R)-1-(5-(3,3-difluoroazetidine-1-carbonyl)thiophen-2-yl)ethyl)cyclopropane-1-carboxamide]",0.1 to 1 µM,–,–
"Cc1cc([C@@H](C)NC(=O)C2CC2c2nc3ccccc3[nH]2)sc1OCC(F)(F)F (single isomer, unassigned) [Example 1A]",–,0.1 to 1 µM,> 10 µM
"C[C@@H](NC(=O)C1CC1c1nc2ccccc2[nH]1)c1ccc(C(=O)O)s1 (single isomer, unassigned) [Example 27]",> 10 µM,–,–
"C[C@@H](NC(=O)C1CC1c1nc2ccccc2[nH]1)c1ccc(C(=O)N2CCOCC2)s1 (stereo in doubt) [Example 56, Trans-2-(1H-benzo[d]imidazol-2-yl)-N—((R)-1-(5-(morpholine-4-carbonyl)thiophen-2-yl)ethyl)cyclopropane-1-carboxamide]",1 to 10 µM,–,–
"C[C@H](NC(=O)C1CC1c1nc2ccccc2[nH]1)c1cnc(OCC(F)(F)F)s1 (single isomer, unassigned) [Example 7B]",–,1 to 10 µM,> 10 µM

# The remaining lines, values ahead:
IC50 [1],IC50 [2],IC50 [3],SMILES
0.1 to 1 µM,–,–,"CC(NC(=O)[C@H]1C[C@@H]1c1nc2ccccc2[nH]1)c1nc2ccc(F)cc2[nH]1 (single isomer, unassigned) [Example 127A]"
1 to 10 µM,–,–,"C[C@@H](NC(=O)C1CC1c1nc2cc(Cl)ccc2[nH]1)c1cnc(OCC(F)(F)F)s1 (single isomer, unassigned) [Example 64B]"
0.1 to 1 µM,–,–,"C[C@@H](NC(=O)C1CC1COc1ccc(F)cc1)c1cc2cc(F)ccc2o1 (single isomer, unassigned) [Example 112B]"
1 to 10 µM,–,–,"C[C@@H](NC(=O)C1CC1COc1ccc(F)cc1)c1cc2cc(F)ccc2o1 (single isomer, unassigned) [Example 112A]"
0.1 to 1 µM,–,–,"C[C@@H](NC(=O)C1CC1c1ccc2ccccc2n1)c1ccc(OCC(F)(F)F)s1 (single isomer, unassigned) [Example 34B]"
0.1 to 1 µM,–,–,"C[C@@H](NC(=O)C1CC1c1nc2cc(Cl)ccc2o1)c1cc2cc(F)ccc2o1 (single isomer, unassigned) [Example 108B]"
0.1 to 1 µM,–,–,"C[C@@H](NC(=O)C1CC1c1ccc2cnn(C)c2c1)c1ccc(OCC(F)(F)F)s1 (single isomer, unassigned) [Example 22B]"
> 10 µM,–,–,"C[C@@H](NC(=O)C1CC1c1nc2ccccc2o1)c1ccc(OCC(F)(F)F)s1 (single isomer, unassigned) [Example 40A]"
1 to 10 µM,–,–,"C[C@@H](NC(=O)C1CC1c1ccccn1)c1ccc(OCC(F)(F)F)s1 (single isomer, unassigned) [Example 23A]"
1 to 10 µM,–,–,"CCn1c(C2CC2C(=O)N[C@H](C)c2cnc(OCC(F)(F)F)s2)nc2ccccc21 (single isomer, unassigned) [Example 57B]"
> 10 µM,–,–,"C[C@@H](NC(=O)C1CC1c1ccc2cnn(C)c2c1)c1cc2cc(F)ccc2o1 (single isomer, unassigned) [Example 103B]"
